IC50 and inhibition data for 13 compounds are collected here from ChEMBL document CHEMBL1143555, “Development of low molecular weight HIV-1 protease dimerization inhibitors” (J Med Chem, 2005).

The target of the first assay is Human immunodeficiency virus type 1 protease (Human immunodeficiency virus 1, UniProt Q72874). In words: Inhibitory concentration against human immunodeficiency virus-1 protease; (competitive inhibitor).
Broadly, the IC50 is the concentration needed to halve the response being measured. Read a low IC50 as greater potency in that assay. `CC(O)[C@H](NC(=O)CCCCCCCCCCCCCCC(=O)N[C@H](CC(=O)N[C@@H](Cc1ccccc1)C(=O)O)C(N)=O)C(=O)N[C@@H](Cc1ccccc1)C(N)=O` (stereo partly drawn): the IC50 amounted to 11 µM.

In a further assay the target is Human immunodeficiency virus type 1 protease (Human immunodeficiency virus 1) (UniProt Q72874). In words: Percent inhibition of human immunodeficiency virus-1 protease after 1 uM treatment.
For orientation: inhibition means the change of the read-out against control, counted positive when it falls. Higher therefore signals a strong effect. In the case of `CCC(C)[C@@H](NC(=O)[C@@H](NC(=O)CCCCCCCCCCCCCCC(=O)N[C@H](CC(=O)N[C@@H](Cc1ccccc1)C(=O)O)C(N)=O)C(C)O)C(=O)NC(CO)C(N)=O` (stereo partly drawn), the inhibition is 8%.
The same measure, in the same setting: the same measure for `CC[C@H](C)[C@@H](NC(=O)C(C)(C)NC(=O)CCCCCCCCCCCCCCC(=O)N[C@H](CC(=O)N[C@@H](Cc1ccccc1)C(=O)O)C(N)=O)C(=O)N[C@@H](Cc1ccccc1)C(N)=O`: 7%.
On the same count and under the same terms, the same measure for `CC[C@H](C)[C@@H](NC(=O)CCCCNC(=O)CCCCCCCCCCCCCCC(=O)N[C@H](CC(=O)N[C@@H](Cc1ccccc1)C(=O)O)C(N)=O)C(=O)N[C@@H](Cc1ccccc1)C(N)=O`: 12%.
For the compound `CC[C@H](C)[C@@H](NC(=O)C(CC1CC1)NC(=O)CCCCCCCCCCCCCCC(=O)N[C@H](CC(=O)N[C@@H](Cc1ccccc1)C(=O)O)C(N)=O)C(=O)N[C@@H](Cc1ccccc1)C(N)=O` (stereo partly drawn), the inhibition was 32%.
The same measure, in the same setting: the result for `CCC(C)[C@@H](NC(=O)[C@@H](NC(=O)CCCCCCCCCCCCCCC(=O)N[C@H](CC(=O)N[C@@H](Cc1ccccc1)C(=O)O)C(N)=O)C(C)O)C(=O)NC(C(N)=O)c1ccccc1` (stereo partly drawn) reads 29%.
On the same count and under the same terms, the result for `CC(O)[C@H](NC(=O)CCCCCCCCCCCCCCC(=O)N[C@H](CC(=O)N[C@@H](Cc1ccccc1)C(=O)O)C(N)=O)C(=O)N[C@H](CC1CCCCC1)C(=O)N[C@@H](Cc1ccccc1)C(N)=O` (stereo partly drawn) reads 30%; that for `CC[C@H](C)[C@@H](NC(=O)c1cccc(CNC(=O)CCCCCCCCCCCCCCC(=O)N[C@H](CC(=O)N[C@@H](Cc2ccccc2)C(=O)O)C(N)=O)c1)C(=O)N[C@@H](Cc1ccccc1)C(N)=O`, 10%.
Still for that read-out and setting: the result for `CCC(C)[C@H](NC(=O)CCCCCCCCCCCCCCC(=O)N[C@@H](CC(N)=O)C(=O)NC(Cc1ccc(O)cc1)C(=O)O)C(=O)N[C@H](Cc1ccccc1)C(N)=O` (stereo partly drawn) reads 15%.
Consider `CC(O)[C@H](NC(=O)CCCCCCCCCCCCCCC(=O)N[C@H](CC(=O)N[C@@H](Cc1ccccc1)C(=O)O)C(N)=O)C(=O)N[C@@H](C(=O)N[C@@H](Cc1ccccc1)C(N)=O)C1CCCCC1` (stereo partly drawn), for which the inhibition was 45%.
Same read-out and setting: the result for `CCC(C)[C@@H](NC(=O)[C@@H](NC(=O)CCCCCCCCCCCCCCC(=O)N[C@H](CC(=O)N[C@@H](Cc1ccccc1)C(=O)O)C(N)=O)C(C)O)C(=O)NC(CC1CC1)C(N)=O` (stereo partly drawn) reads 21%; that for `CCC(C)[C@@H](NC(=O)[C@@H](NC(=O)CCCCCCCCCCCCCCC(=O)N[C@H](CC(=O)N[C@@H](Cc1ccccc1)C(=O)O)C(N)=O)C(C)O)C(=O)Nc1ccc(C(N)=O)cc1` (stereo partly drawn), 36%; that for `CCCC(NC(=O)CCCCCCCCCCCCCCC(=O)N[C@H](CC(=O)N[C@@H](Cc1ccccc1)C(=O)O)C(N)=O)C(=O)N[C@@H](C(=O)N[C@@H](Cc1ccccc1)C(N)=O)[C@@H](C)CC` (stereo partly drawn), 14%.
